We go through two compounds from patent US20220348543A1, “SALTS OF OMECAMTIV MECARBIL AND SOLID FORMS THEREOF” (SYNTHON B.V., priority 2019, published 2022).

Structures can show the parent of a compound that is named as a salt. Where two headings read alike, the source gives them in different places. Bounds are passed on as bounds.

A short description of series [1]: Solubility of Omecamtiv mecarbil salts in water solution (aqueous buffer) at different pH. The series is classed as physicochemical. The conditions noted are these: USP / Ph. Eur. descriptive terms, read-out: Category of solubility (Descriptive Term). As for the experimental part:
The solubility of prepared salts was tested in water solution at different pH (1.2, 4.5 and 6.8) and compared to Omecamtiv mecarbil dihydrochloride monohydrate salt prepared according to a procedure disclosed in WO2006009726 application.
It can be concluded that solubility of all prepared salt is better that the solubility of dihydrochloride monohydrate salt.

Series [2] can be described thus: Stability at 25° C. of the solid isolated from salt crystallisation. The conditions noted are these: crystallised from 2-butanone. The class given is physicochemical. As for the experimental part:
The preparation of Omecamtiv mecarbil methane sulfonic acid salt was tested also in following solvent: methanol, ethanol, isopropanol, 1-butanol, acetone and tetrahydrofurane. Solid obtainable from these solvents was not stable and it melted at a temperature 25° C. […] The solid Form M can be therefore used for purification of Omecamtiv mecarbil. The salt can be transformed into Omecamtiv mecarbil by contacting with a base (for example sodium hydrogen carbonate or potassium hydrogen carbonate or sodium carbonate or potassium carbonate or sodium hydroxide or potassium hydroxide) in a suitable solvent (for example an alcohol or acetone).
250 mg of Omecamtiv mecarbil was dissolved in a solvent (in Table below) at a temperature (in Table below). 40 μl methane sulfonic acid (1 eq. w.r.t. Omecamtiv mecarbil) was added. The mixture was cooled to 25° C. and stirred for 16 hours. If no solid appeared, mixture was then stirred at −15° C. Solid mass was filtered off and dried. The ratio between Omecamtiv mecarbil and the salt was determined by NMR as 1:2 (i.e. dimethane sulfonate salt).

On to `COC(=O)N1CCN(Cc2cccc(NC(=O)Nc3ccc(C)nc3)c2F)CC1` [Omecamtiv mecarbil p-toluene sulfonic acid salt], for which the solubility is not below 1000 mg/mL in series [1] (aqueous buffer pH 4.5); not below 1000 mg/mL in series [1] (aqueous buffer pH 6.8); not below 1000 mg/mL in series [1] (simulated gastric fluid, aqueous buffer pH 1.2).

For `COC(=O)N1CCN(Cc2cccc(NC(=O)Nc3ccc(C)nc3)c2F)CC1` [Salt with methane sulfonic acid, Form M, Omecamtiv mecarbil methane sulfonic acid salt], in series [2], the “stability of the crystalline solid” value was “form M, stable at 25° C.,”.
